Patent US10758534B2 (Vertex Pharmaceuticals Incorporated, priority 2014, dated 2020)

Each compound was assayed against T1, F508del (Homo sapiens, UniProt P13569, DEL508-508) (assay: Protocol 2: FRET membrane potential optical assay (VIPR), identification of correction compounds). Conditions: F508del CFTR modulator activity; compounds of Table 1; read-out: EC30.
T1 construct: expressed in transfected cells
Assay type: cell-based
In short: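 Mouse NIH3T3 cells, stable F508del; cpd 16 hrs, 37° C., serum-free; pos ctrl 27° C. 16 hrs. Rinse in Krebs Ringers, dye load, then add 10 μM forskolin + 20 μM genistein with Cl^−-free (gluconate) medium; depolarization by FRET voltage dyes.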

T1 sequence (P13569 with tags, fused parts or gaps DEL508-508): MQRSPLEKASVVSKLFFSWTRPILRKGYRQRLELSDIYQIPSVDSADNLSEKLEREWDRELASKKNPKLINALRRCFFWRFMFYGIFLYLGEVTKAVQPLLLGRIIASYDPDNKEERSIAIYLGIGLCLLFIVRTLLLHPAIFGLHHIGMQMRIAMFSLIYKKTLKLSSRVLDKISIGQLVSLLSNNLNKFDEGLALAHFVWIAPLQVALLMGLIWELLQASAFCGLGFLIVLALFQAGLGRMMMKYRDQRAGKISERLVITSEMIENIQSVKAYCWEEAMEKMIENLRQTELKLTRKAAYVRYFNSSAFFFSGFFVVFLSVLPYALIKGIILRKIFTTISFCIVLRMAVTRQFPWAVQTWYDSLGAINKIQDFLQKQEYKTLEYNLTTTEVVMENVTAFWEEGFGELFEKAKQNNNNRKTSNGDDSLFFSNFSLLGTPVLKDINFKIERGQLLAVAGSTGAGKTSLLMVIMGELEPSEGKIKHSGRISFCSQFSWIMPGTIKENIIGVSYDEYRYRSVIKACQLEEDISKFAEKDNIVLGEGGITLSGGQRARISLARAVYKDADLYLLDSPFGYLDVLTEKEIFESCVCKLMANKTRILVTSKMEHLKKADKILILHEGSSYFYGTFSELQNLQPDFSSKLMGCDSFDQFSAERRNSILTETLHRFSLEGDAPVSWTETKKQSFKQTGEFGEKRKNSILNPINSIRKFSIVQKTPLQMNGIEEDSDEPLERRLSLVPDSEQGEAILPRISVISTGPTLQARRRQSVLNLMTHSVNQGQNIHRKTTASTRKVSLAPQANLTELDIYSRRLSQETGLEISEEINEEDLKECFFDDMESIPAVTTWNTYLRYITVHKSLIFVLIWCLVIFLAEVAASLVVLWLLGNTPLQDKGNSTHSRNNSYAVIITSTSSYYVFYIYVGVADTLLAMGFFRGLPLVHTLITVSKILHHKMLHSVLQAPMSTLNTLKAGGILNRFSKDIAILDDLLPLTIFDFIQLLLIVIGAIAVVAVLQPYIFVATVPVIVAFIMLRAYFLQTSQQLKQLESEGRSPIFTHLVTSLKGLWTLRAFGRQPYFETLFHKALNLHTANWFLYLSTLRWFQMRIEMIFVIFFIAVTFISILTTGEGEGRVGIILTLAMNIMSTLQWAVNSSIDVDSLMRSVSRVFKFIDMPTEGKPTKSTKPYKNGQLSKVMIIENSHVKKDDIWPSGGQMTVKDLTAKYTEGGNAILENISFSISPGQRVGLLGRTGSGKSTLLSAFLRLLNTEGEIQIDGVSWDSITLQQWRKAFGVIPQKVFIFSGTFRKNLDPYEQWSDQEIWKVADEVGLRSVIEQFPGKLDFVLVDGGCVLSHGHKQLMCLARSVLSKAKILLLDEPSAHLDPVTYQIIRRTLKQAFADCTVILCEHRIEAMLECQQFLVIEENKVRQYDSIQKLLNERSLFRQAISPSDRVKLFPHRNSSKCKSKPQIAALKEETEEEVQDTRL

| Compound | EC30 [nM] |
| --- | --- |
| CC(C)COc1cc(F)cc(-c2ccc(C(=O)NS(=O)(=O)c3cccc(N)n3)c(N3CC4(CCC4)CC3(C)C)n2)c1 [Compound 2589, N-[(6-amino-2-pyridyl)sulfonyl]-2-(6,6-dimethyl-7-azaspiro[3.4]octan-7-yl)-6-(3-fluoro-5-isobutoxy-phenyl)pyridine-3-carboxamide] | < 3000 |
| C[C@@H]1CN(c2nc(-n3cc(OCC(C)(C)C)cn3)ccc2C(=O)NS(=O)(=O)c2cccnc2N)C(C)(C)C1 [Compound 2406, N-[(2-amino-3-pyridyl)sulfonyl]-6-[4-(2,2-dimethylpropoxy)pyrazol-1-yl]-2-[(4S)-2,2,4-trimethylpyrrolidin-1-yl]pyridine-3-carboxamide] | < 3000 |
| CC1CN(c2ncccc2C(=O)NS(=O)(=O)c2cccc(Nc3ccc4c(ccn4C)c3)n2)C(C)(C)C1 (stereo not shown) [Compound 2193, N—[[6-[(1-methylindol-5-yl)amino]-2-pyridyl]sulfonyl]-2-(2,2,4-trimethylpyrrolidin-1-yl)pyridine-3-carboxamide] | < 3000 |
| CC(C)COc1cc(F)cc(-c2ccc(C(=O)NS(=O)(=O)c3cccc(N)n3)c(N3CC(F)C3)n2)c1 [Compound 2128, N-[(6-amino-2-pyridyl)sulfonyl]-2-(3-fluoroazetidin-1-yl)-6-(3-fluoro-5-isobutoxy-phenyl)pyridine-3-carboxamide] | 3000 to 10000 |
| CC1CN(c2ncccc2C(=O)NS(=O)(=O)c2cccc(NCCc3ccncc3)n2)C(C)(C)C1 (stereo not shown) [Compound 2735] | 3000 to 10000 |
| CC(C)Oc1cccc(-c2ccc(C(=O)NS(=O)(=O)c3cccnc3N)c(N3C[C@@H](C)CC3(C)C)n2)c1 [Compound 2515, N-[(2-amino-3-pyridyl)sulfonyl]-6-(3-isopropoxyphenyl)-2-[(4S)-2,2,4-trimethylpyrrolidin-1-yl]pyridine-3-carboxamide] | < 3000 |
| CC(=O)Nc1cccc(Oc2cccc(S(=O)(=O)NC(=O)c3cccnc3N3CC(C)CC3(C)C)n2)c1 (stereo not shown) [Compound 2433, N—[[6-(3-acetamidophenoxy)-2-pyridyl]sulfonyl]-2-(2,2,4-trimethylpyrrolidin-1-yl)pyridine-3-carboxamide] | 3000 to 10000 |
| CC1CN(c2ncccc2C(=O)NS(=O)(=O)c2cccc(Nc3ccc(NC(=O)OC(C)(C)C)cc3)n2)C(C)(C)C1 (stereo not shown) [Compound 2743] | < 3000 |

Same assay, conditions: Table 3; compounds of Table 1 as modulators of CFTR activity; protocol not stated

| Compound | EC30 |
| --- | --- |
| CC1(C)CCCc2cc(C(=O)NS(=O)(=O)c3cccc(N)c3)c(-c3ccccc3)nc21 [Compound 685, N-(3-aminophenyl)sulfonyl-8,8-dimethyl-2-phenyl-6,7-dihydro-5H-quinoline-3-carboxamide] | +++ (“+++” means <3 uM) |
| COc1ccc(S(=O)(=O)NC(=O)c2ccc(C(C)(C)C)nc2-c2ccc(C)cc2)cn1 [Compound 512, 6-tert-butyl-N-[(6-methoxy-3-pyridyl)sulfonyl]-2-(p-tolyl)pyridine-3-carboxamide] | ++ (“++” means between 3 uM and 10 uM) |
| COCC1CCCCN1c1nc(-c2ccc(OC(C)C)nc2)ccc1C(=O)NS(=O)(=O)c1cccc(N)n1 (stereo not shown) [Compound 574, N-[(6-amino-2-pyridyl)sulfonyl]-6-(6-isopropoxy-3-pyridyl)-2-[2-(methoxymethyl)-1-piperidyl]pyridine-3-carboxamide] | ++ (“++” means between 3 uM and 10 uM) |
| Cc1cccc(-c2cc(C(=O)NS(=O)(=O)c3ccccc3)n(Cc3c(C)cccc3C)n2)c1 [Compound 202, N-(benzenesulfonyl)-2-[(2,6-dimethylphenyl)methyl]-5-(m-tolyl)pyrazole-3-carboxamide] | +++ (“+++” means <3 uM) |
| CC(C)Oc1ccc(-c2ccc(C(=O)NS(=O)(=O)c3cccc(N)n3)c(N3CCCC3C(C)(C)C)n2)cn1 (stereo not shown) [Compound 597, N-[(6-amino-2-pyridyl)sulfonyl]-2-(2-tert-butylpyrrolidin-1-yl)-6-(6-isopropoxy-3-pyridyl)pyridine-3-carboxamide] | +++ (“+++” means <3 uM) |
| COCc1ccc(-c2ccc(C(=O)NS(=O)(=O)c3cccc(N)n3)c(Oc3c(C)cc(C)cc3C)n2)cc1 [Compound 66, N-[(6-amino-2-pyridyl)sulfonyl]-6-[4-(methoxymethyl)phenyl]-2-(2,4,6-trimethylphenoxy)pyridine-3-carboxamide] | +++ (“+++” means <3 uM) |
| CC(C)Oc1ccc(-c2ccc(C(=O)NS(=O)(=O)c3cccc(N)n3)c(N3CCCC(F)C3)n2)cn1 (stereo not shown) [Compound 745, N-[(6-amino-2-pyridyl)sulfonyl]-2-(3-fluoro-1-piperidyl)-6-(6-isopropoxy-3-pyridyl)pyridine-3-carboxamide] | ++ (“++” means between 3 uM and 10 uM) |
| Cc1cc(C)c(Oc2nc3ccccc3cc2C(=O)NS(=O)(=O)c2ccncc2)c(C)c1 [Compound 240, N-(4-pyridylsulfonyl)-2-(2,4,6-trimethylphenoxy)quinoline-3-carboxamide] | ++ (“++” means between 3 uM and 10 uM) |
| COc1ccc2cc(C(=O)NS(=O)(=O)c3cccc(N)c3)n(Cc3c(C)cccc3C)c2c1 [Compound 116, N-(3-aminophenyl)sulfonyl-1-[(2,6-dimethylphenyl)methyl]-6-methoxy-indole-2-carboxamide] | ++ (“++” means between 3 uM and 10 uM) |
| Cc1cc(C)c(Oc2nc(-c3ccc(F)cc3F)ccc2C(=O)NS(=O)(=O)c2cccc(N)n2)c(C)c1 [Compound 439, N-[(6-amino-2-pyridyl)sulfonyl]-6-(2,4-difluorophenyl)-2-(2,4,6-trimethylphenoxy)pyridine-3-carboxamide] | +++ (“+++” means <3 uM) |
| Cc1ccc(Oc2nc(-c3cc(F)cc(OCC(C)C)c3)ccc2C(=O)NS(=O)(=O)c2ccn[nH]2)cc1 [Compound 758, 6-(3-fluoro-5-isobutoxy-phenyl)-2-(4-methylphenoxy)-N-(1H-pyrazol-5-ylsulfonyl)pyridine-3-carboxamide] | ++ (“++” means between 3 uM and 10 uM) |
| Cc1cc(C)c(Cn2c(C(=O)NS(=O)(=O)c3cccc(N)c3)cc3ccc(Cl)cc32)c(C)c1 [Compound 9, N-(3-aminophenyl)sulfonyl-6-chloro-1-[(2,4,6-trimethylphenyl)methyl]indole-2-carboxamide] | +++ (“+++” means <3 uM) |
| CC(C)COc1cc(F)cc(-c2ccc(C(=O)NS(=O)(=O)c3cccc(N)n3)c(N3CCC[C@H](c4ccccc4)C3)n2)c1 [Compound 651, N-[(6-amino-2-pyridyl)sulfonyl]-6-(3-fluoro-5-isobutoxy-phenyl)-2-[(3R)-3-phenyl-1-piperidyl]pyridine-3-carboxamide] | +++ (“+++” means <3 uM) |
| Cc1cc(C)c(Oc2nc(-c3ccc(Cl)cc3F)ccc2C(=O)NS(=O)(=O)c2cccc(N)n2)c(C)c1 [Compound 207, N-[(6-amino-2-pyridyl)sulfonyl]-6-(4-chloro-2-fluoro-phenyl)-2-(2,4,6-trimethylphenoxy)pyridine-3-carboxamide] | +++ (“+++” means <3 uM) |
| Cc1cc(C)c(Cn2c(C(=O)NS(=O)(=O)c3ccccc3)cc3c(F)cccc32)c(C)c1 [Compound 87, N-(benzenesulfonyl)-4-fluoro-1-[(2,4,6-trimethylphenyl)methyl]indole-2-carboxamide] | +++ (“+++” means <3 uM) |
| Cc1cc(C)c(Oc2nn(C(C)(C)C)cc2C(=O)NS(=O)(=O)c2cccc(N)c2)c(C)c1 [Compound 325, N-(3-aminophenyl)sulfonyl-1-tert-butyl-3-(2,4,6-trimethylphenoxy)pyrazole-4-carboxamide] | +++ (“+++” means <3 uM) |
| Cc1cc(C)c(Oc2nc3c(cc2C(=O)NS(=O)(=O)c2cccc(N)n2)CCC(C)(C)C3)c(C)c1 [Compound 665, N-[(6-amino-2-pyridyl)sulfonyl]-7,7-dimethyl-2-(2,4,6-trimethylphenoxy)-6,8-dihydro-5H-quinoline-3-carboxamide] | +++ (“+++” means <3 uM) |
| Cc1cccc(C)c1Oc1nc(-c2cc(F)cc(OCC(C)C)c2)ccc1C(=O)NS(=O)(=O)c1cccc(N)n1 [Compound 639, N-[(6-amino-2-pyridyl)sulfonyl]-2-(2,6-dimethylphenoxy)-6-(3-fluoro-5-isobutoxy-phenyl)pyridine-3-carboxamide] | +++ (“+++” means <3 uM) |
| CC(C)CNc1ccc(-c2ccc(C(=O)NS(=O)(=O)c3cccc(N)n3)c(N3CC(C)CC3(C)C)n2)cn1 (stereo not shown) [Compound 569, N-[(6-amino-2-pyridyl)sulfonyl]-6-[16-(isobutylamino)-3-pyridyl]-2-(2,2,4-trimethylpyrrolidin-1-yl)pyridine-3-carboxamide] | +++ (“+++” means <3 uM) |
| Cc1cc(C)c(Oc2nc(-n3cccn3)ccc2C(=O)NS(=O)(=O)c2cccc(N)n2)c(C)c1 [Compound 564, N-[(6-amino-2-pyridyl)sulfonyl]-6-pyrazol-1-yl-2-(2,4,6-trimethylphenoxy)pyridine-3-carboxamide] | ++ (“++” means between 3 uM and 10 uM) |
| Cc1cc(C)c(Cn2c(C(=O)NS(=O)(=O)c3ccncc3)cc3ccc(C)cc32)c(C)c1 [Compound 38, 6-methyl-N-(4-pyridylsulfonyl)-1-[(2,4,6-trimethylphenyl)methyl]indole-2-carboxamide] | +++ (“+++” means <3 uM) |
| COc1ncc(-c2ccc(C(=O)NS(=O)(=O)c3cccc(N)n3)c(Oc3c(C)cc(C)cc3C)n2)cc1F [Compound 612, N-[(6-amino-2-pyridyl)sulfonyl]-6-(5-fluoro-6-methoxy-3-pyridyl)-2-(2,4,6-trimethylphenoxy)pyridine-3-carboxamide] | +++ (“+++” means <3 uM) |
| CC(C)Oc1ccc(-c2ccc(C(=O)NS(=O)(=O)c3cccc(N)n3)c(N3CCC4CCCC43)n2)cn1 (stereo not shown) [Compound 732, 2-(3,3a,4,5,6,6a-hexahydro-2H-cyclopenta[b]pyrrol-1-yl)-N-[(6-amino-2-pyridyl)sulfonyl]-6-(6-isopropoxy-3-pyridyl)pyridine-3-carboxamide] | +++ (“+++” means <3 uM) |
